Test results as given in patent US20190016747A1, “PURIFIED REBAUDIOSIDE A” (SGF Holdings, LLC, priority 2004, published 2019).
Where two headings read alike, the source gives them in different places.

Experiment: Solubility in water by incremental addition of water until complete solubilization
Format: physicochemical
Conditions: for % Solubility (solids (g)/ final volume (ml)): in water at room temperature, Example 4 samples
Protocol: In Example 4, RA89.95 Stevia starting material was processed through two reflux stages of the industrial embodiment of the invention, and a sample of the final product of the industrial process used as starting material in a stirred wash stage of the laboratory embodiment of the invention. Specifically, 100 kilograms of RA90 Stevia starting material were mixed with 400 liters of 90Et/10W solvent (this experiment was conducted while the starting material assay was still being perfected) and refluxed for 1 hour at 80° C., then cooled (chilled water in tank jacket) and allowed to stand for a minimum of 2 hours with mixture temperature maintained between 4° C. and 20° C. The mixture was filtered through a centrifugal decanter, and the retentate added to 400 liters of 90Et/10W solvent and refluxed for 1 hour at 80° C. The mixture from the second reflux was filtered through a centrifugal decanter. The retentate of the filtering of the second reflux mixture was mixed with water until the volume of the mixture was approximately twice the mass of the retentate (e.g., 350 kg retentate in a total mixture volume of 700 liters). The mixture in water was heated to 80° C. for approximately one hour to purge any residual ethanol from the mixture, then the mixture was spray-dried. There was no reflux in absolute ethanol prior to spray drying. The spray-dried product was weighed and a 0.1 gram sample was analyzed for rebaudioside A content using the HPLC Method described above. Five grams of the spray-dried material was mixed with 20 mls of absolute ethanol in a 100 ml round-bottomed flask and refluxed for 1 hour at 80° C. (“refluxed sample”) and then allowed to cool to room temperature. A second 5 gram sample of the spray-dried material was mixed with 20 mls of absolute ethanol and stirred for 15 minutes at room temperature (“stirred sample”). Both samples were filtered over a Whatman GF/A glass fiber filter (1.6 μm pore size) and the retained solids of both samples were dried in a blower oven at 80° C. until the solids maintained a constant weight. 1 gram each of the refluxed sample and of the stirred sample were placed in 15 ml glass centrifuge tubes. Water was added to each tube in 0.1 ml increments and the mixture thoroughly shaken to ensure maximum solubilization. Incremental aliquots of water were added until complete solubilization was achieved as evidenced by the lack of any observable suspended solids in the solution. The final volume at which complete solubilization occurred in each sample was noted.

SMILES	% Solubility (solids (g)/ final volume (ml)) [%]	solubility in water	other results
C=C1C[C@@]23CC[C@H]4[C@@](C)(CCC[C@@]4(C)C(=O)O[C@@H]4O[C@H](CO)[C@@H](O)[C@H](O)[C@H]4O)[C@@H]2CC[C@]1(O[C@@H]1O[C@H](CO)[C@@H](O)[C@H](O[C@@H]2O[C@H](CO)[C@@H](O)[C@H](O)[C@H]2O)[C@H]1O[C@@H]1O[C@H](CO)[C@@H](O)[C@H](O)[C@H]1O)C3 [1 hour reflux in 100% ethanol, rebaudioside A]	40		% Solubility (solids (g)/ final volume (ml)) (listed as 1 hour reflux in absolute ethanol): 40%
C=C1C[C@@]23CC[C@H]4[C@@](C)(CCC[C@@]4(C)C(=O)O[C@@H]4O[C@H](CO)[C@@H](O)[C@H](O)[C@H]4O)[C@@H]2CC[C@]1(O[C@@H]1O[C@H](CO)[C@@H](O)[C@H](O[C@@H]2O[C@H](CO)[C@@H](O)[C@H](O)[C@H]2O)[C@H]1O[C@@H]1O[C@H](CO)[C@@H](O)[C@H](O)[C@H]1O)C3 [Example 6, rebaudioside A]			solubility in water (at 25° C.): 59.0%
C=C1C[C@@]23CC[C@H]4[C@@](C)(CCC[C@@]4(C)C(=O)O[C@@H]4O[C@H](CO)[C@@H](O)[C@H](O)[C@H]4O)[C@@H]2CC[C@]1(O[C@@H]1O[C@H](CO)[C@@H](O)[C@H](O[C@@H]2O[C@H](CO)[C@@H](O)[C@H](O)[C@H]2O)[C@H]1O[C@@H]1O[C@H](CO)[C@@H](O)[C@H](O)[C@H]1O)C3 [15 minute stir in 100% ethanol, rebaudioside A]	33		% Solubility (solids (g)/ final volume (ml)) (listed as 15 minute stirred wash in absolute ethanol): 33%
C=C1C[C@@]23CC[C@H]4[C@@](C)(CCC[C@@]4(C)C(=O)O[C@@H]4O[C@H](CO)[C@@H](O)[C@H](O)[C@H]4O)[C@@H]2CC[C@]1(O[C@@H]1O[C@H](CO)[C@@H](O)[C@H](O[C@@H]2O[C@H](CO)[C@@H](O)[C@H](O)[C@H]2O)[C@H]1O[C@@H]1O[C@H](CO)[C@@H](O)[C@H](O)[C@H]1O)C3 [purified rebaudioside A, rebaudioside A]		about 33%	
C=C1C[C@@]23CC[C@H]4[C@@](C)(CCC[C@@]4(C)C(=O)O[C@@H]4O[C@H](CO)[C@@H](O)[C@H](O)[C@H]4O)[C@@H]2CC[C@]1(O[C@@H]1O[C@H](CO)[C@@H](O)[C@H](O[C@@H]2O[C@H](CO)[C@@H](O)[C@H](O)[C@H]2O)[C@H]1O[C@@H]1O[C@H](CO)[C@@H](O)[C@H](O)[C@H]1O)C3 [final product, rebaudioside A]		~33%	
C=C1C[C@@]23CC[C@H]4[C@@](C)(CCC[C@@]4(C)C(=O)O[C@@H]4O[C@H](CO)[C@@H](O)[C@H](O)[C@H]4O)[C@@H]2CC[C@]1(O[C@@H]1O[C@H](CO)[C@@H](O)[C@H](O[C@@H]2O[C@H](CO)[C@@H](O)[C@H](O)[C@H]2O)[C@H]1O[C@@H]1O[C@H](CO)[C@@H](O)[C@H](O)[C@H]1O)C3 [No 100% ethanol treatment, rebaudioside A]	2		% Solubility (solids (g)/ final volume (ml)) (listed as 99.6% Reb A purity product): 2%
